# Results reported in patent US8207227B2, “Disodium salts, monohydrates, and ethanol solvates for delivering active agents” (Emisphere Technologies, Inc., priority 1999, dated 2012).
# Assays:
# [1] = Oral delivery of sCT/sodium salt of 5-CNAC in rats; serum sCT by EIA kit, modified protocol; assay type: in vivo, Sprague-Dawley rats; conditions: subcutaneous, sCT 5 mg/kg (so in the source), no delivery agent
# Procedure: The rats were administered one of the following: • (4a) orally, one capsule of 13 mg lyophilized powder as prepared as in Example 19 with 0.5 ml of water to flush the capsule down; • (4b) orally, 1.0 ml/kg of a reconstituted aqueous solution of the lyophilized powder prepared in Example 19; • (4c) orally, 1.0 ml/kg of “fresh”, unlyophilized aqueous solution of 5-CNAC sodium salt as prepared in Example 20 with sCT; or • (4d) subcutaneously, 5 mg/kg of sCT.
# Doses (4a), (4b) and (4c) contained 50 mg/kg of the sodium salt of 5-CNAC and […] of sCT. Doses for (4a) are approximate because the animals were given one capsule filled with the stated amount of powder based on an average animal weight of 250 g, whereas actual animal weight varied. This is also the case in all later examples where a capsule is dosed.
# The reconstituted solution for (4b) was prepared by mixing 150 mg of the lyophilized powder prepared as in Example 19 in 3 ml of water. The reconstituted solution was dosed at […].
# The subcutaneous doses were prepared by dissolving 2 mg of sCT in 1 ml water. […]. This solution was dosed at 0.5 ml/kg.
# Blood samples were collected serially from the tail artery. […]
# clotting time (APTT) = experiment: Oral delivery of heparin with SNAC salts; clotting time by activated partial thromboplastin time (APTT); assay type: in vivo, Sprague-Dawley rats; conditions: rats, oral gavage, 3 ml/kg, compound 300 mg/kg, heparin 100 mg/kg; baseline about 20 seconds
# Procedure: Oral gavage (PO) dosing solutions containing heparin sodium USP and either the mono-sodium or di-sodium salt form of the delivery agent compound SNAC were prepared in water. The delivery agent compound and heparin (166.9 IU/mg) were mixed by vortex as dry powders. This dry mixture was dissolved in water, vortexed and sonicated at about 37° C. to produce a clear solution. The pH was not adjusted. The final volume was adjusted to about 10.0 ml. The final delivery agent compound dose, heparin dose and dose volume amounts are listed below in Table 2 below.
# The typical dosing and sampling protocols were as follows. […]
# Citrated blood samples were collected by cardiac puncture 0.25, 0.5, 1.0 and 1.5 hours after administration. Heparin absorption was verified by an increase in clotting time as measured by the activated partial thromboplastin time (APTT) according to the method of Henry, J. B., Clinical Diagnosis and Management by Laboratory Methods, Philadelphia, Pa., W.B. Saunders (1979). […] Heparin absorption was also verified by an increase in plasma heparin measured by the anti-Factor Xa assay CHROMOSTRATE® Heparin anti-Xa assay, available from Organon Teknika Corporation of Durham, N.C. […]
# [2] = Oral delivery of heparin with SNAC salts; plasma heparin by anti-Factor Xa assay; assay type: in vivo, Sprague-Dawley rats; conditions: rats, oral gavage, 3 ml/kg, compound 300 mg/kg, heparin 100 mg/kg
# Procedure: The typical dosing and sampling protocols were as follows. […] The syringe was filled with dosing solution by drawing the solution through the catheter, which was then wiped dry. The catheter was placed down the esophagus leaving 1 cm of tubing past the incisors. Solution was administered by pressing the syringe plunger.
# [3] = Oral delivery of low molecular weight heparin (LMWH) with SNAD salts; plasma heparin by anti-Factor Xa assay; assay type: in vivo, Sprague-Dawley rats; conditions: rats, 3 ml/kg, compound 300 mg/kg, LMWH dose 3000 (mg/kg)
# Procedure: The typical dosing and sampling protocols were as follows. Male Sprague-Dawley rats weighing between 275-350 g were fasted for 24 hours and were anesthetized with ketamine hydrochloride (about 88 mg/kg) intramuscularly immediately prior to dosing and again as needed to maintain anesthesia. A dosing group of ten rats was administered one of the dosing solutions. An 11 cm Rusch 8 French catheter was adapted to a 1 ml syringe with a pipette tip. The syringe was filled with dosing solution by drawing the solution through the catheter, which was then wiped dry. The catheter was placed down the esophagus leaving 1 cm of tubing past the incisors. Solution was administered by pressing the syringe plunger.
# Oral dosing (PO) compositions containing low molecular weight heparin (LMWH) and either the mono-sodium or di-sodium salt form of the delivery agent compound SNAD were prepared in water. […]
# Citrated blood samples were collected by cardiac puncture 0.5, 1.0, 2.0, 3.0 and 4.0 hours after administration. Heparin absorption was verified by an increase in plasma heparin measured by the anti-Factor Xa assay CHROMOSTRATE® Heparin anti-Xa assay, available from Organon Teknika Corporation of Durham, N.C. Baseline values were determined earlier and found to be about zero IU/ml. […]
# [4] = Oral delivery of heparin with SNAD salts; plasma heparin by anti-Factor Xa assay; assay type: in vivo, cynomolgus macaque monkeys; conditions: cynomolgus monkeys, about 150 mg/kg delivery agent and 30 mg/kg heparin
# Procedure: The dose for each monkey was about 150 mg/kg of the disodium SNAD ethanol solvate and about 30 mg/kg of heparin. The dosing protocol for administering the capsules to each animal was as follows. […] Water was available throughout the dosing period and 400 ml juice was made available to the animal overnight prior to dosing and throughout the dosing period. The animal was restrained in a sling restraint. A capsule was placed into a “pill gun”, which is a plastic tool with a cocked plunger and split rubber tip to accommodate a capsule. The pill gun was inserted into the esophagus of the animal. The plunger of the pill gun was pressed to push the capsule out of the rubber tip into the esophagus. The pill gun was then retracted. The animal's mouth was held closed and approximately 5 ml reverse osmosis water was administered into the mouth from the side to induce a swallowing reflex. The throat of the animal was rubbed further to induce the swallowing reflex. […] Blood was added to fill the tube to the 1.3 ml line. The tube was then placed on wet ice pending centrifugation. […] Plasma heparin concentrations were determined using the anti-Factor Xa assay CHROMOSTRATE™ heparin anti-Xa assay, available from Organon Teknika Corporation of Durham, N.C. Results from the animals were averaged for each time point. […] Two tablets were dosed to each of approximately 4.0 kg monkeys. […]
compound,measurement,setting,value
"CC(C)C[C@H](NC(=O)[C@H](CCCCN)NC(=O)CNC(=O)[C@H](CC(C)C)NC(=O)[C@@H](NC(=O)[C@@H]1CSSC[C@H](N)C(=O)N[C@@H](CO)C(=O)N[C@@H](CC(N)=O)C(=O)N[C@@H](CC(C)C)C(=O)N[C@@H](CO)C(=O)N[C@@H]([C@@H](C)O)C(=O)N1)C(C)C)C(=O)N[C@@H](CO)C(=O)N[C@@H](CCC(N)=O)C(=O)N[C@@H](CCC(=O)O)C(=O)N[C@@H](CC(C)C)C(=O)N[C@@H](Cc1c[nH]cn1)C(=O)N[C@@H](CCCCN)C(=O)N[C@@H](CC(C)C)C(=O)N[C@@H](CCC(N)=O)C(=O)N[C@H](C(=O)N[C@@H](Cc1ccc(O)cc1)C(=O)N1CCC[C@H]1C(=O)N[C@@H](CCCNC(=N)N)C(=O)N[C@H](C(=O)N[C@@H](CC(N)=O)C(=O)N[C@H](C(=O)NCC(=O)N[C@@H](CO)C(=O)NCC(=O)N[C@H](C(=O)N1CCC[C@H]1C(N)=O)[C@@H](C)O)[C@@H](C)O)[C@@H](C)O)[C@@H](C)O [(4d) subcutaneous, salmon calcitonin]",Mean Peak Serum sCT ± SD,"[1]; Table 5, rats",965 ± 848 pg/mL
same,Mean Peak Serum sCT ± SD,"[1]; Table 6, rats",273 ± 320 pg/mL
O=C([O-])CCCCCCCNC(=O)c1ccccc1[O-].[Na+].[Na+] [SNAC - di],Mean Peak APTT (sec) ± SE,clotting time (APTT),300 ± 0 s
same,Mean Peak Factor Xa (IU · ml) ± SE,[2],2.81 ± 0.17 IU · ml
O=C([O-])CCCCCCCCCNC(=O)c1ccccc1[O-].[Na+].[Na+] [SNAD-di],Mean Peak Plasma Heparin Concentration (IU/ml) ± SE,[3],1.21 ± 0.15 IU/ml
"O=C([O-])CCCCCCCCCNC(=O)c1ccccc1O.[Na+] [monosodium salt of SNAD, Monosodium N-(10-[2-hydroxybenzoyl]amino)decanoate]",Mean Peak Plasma Heparin Concentration (IU/ml) ± SE,[3],0.88 ± 0.17 IU/ml
same,Time after administration at which maximum averaged plasma heparin was reached,[4],2 h
same,Maximum averaged plasma heparin concentration,[4]; two capsules or two tablets,0.23±0.19 IU/mL
Mono-Sodium N-(8-[(2-hydroxybenzoyl]amino)caprylate [SNAC - mono],Mean Peak APTT (sec) ± SE,clotting time (APTT),247 ± 28.5 s
